Laboratory results as given in publication PMC11351612, “Heteronuclear Complexes with Promising Anticancer Activity against Colon Cancer” (Biomedicines, 2024).

Legend:
[1] = Solution stability by UV-vis in PBS; assay type: physicochemical; conditions: PBS pH 7.4, 37 °C; for Stability under physiological conditions (UV-vis spectrum over time): 24 h
Protocol: Solution chemistry. The stability of the dinuclear derivatives was analysed by absorption UV-vis spectroscopy. UV-vis absorption spectra of the complexes were recorded on a Thermo Scientific spectrophotometer. Solutions of the complexes (5 × 10^−5 M) in PBS (pH = 7.4) were prepared from 20 mM DMSO stock solutions and thereafter monitored over 24 h at 37 °C, measuring the electronic spectra.
The solution stability of the new heterometallic compounds was determined under physiological conditions. To simulate conditions similar to those in cell culture and the body, the compounds were dissolved in a phosphate-buffered saline solution (PBS) with a pH of 7.4 and then incubated at 37 °C. The UV spectra of each complex were recorded at different time intervals (Figure S14). Qualitative determination of the stability of the compounds under such conditions was achieved by comparing the spectra obtained at each time point.

[2] = target: T1, bovine serum albumin (BSA) (Bos taurus, UniProt P02769); assay: BSA fluorescence quenching (Stern-Volmer); assay type: binding; conditions: [BSA] = 50 μM, complex 0-30 μM, 298 K; for Stern-Volmer quenching constant KSV: λexc 295 nm
T1 construct: purchased Sigma Aldrich (St. Louis, MO, USA)
Protocol: Interaction with bovine serum albumin. BSA was purchased from Sigma Aldrich (St. Louis, MO, USA). A 2 mM stock solution of BSA was prepared by dissolving the commercial powder in PBS at pH 7.4. Afterwards, the real concentration was confirmed using UV-vis spectroscopy (ε280 nm = 43,824 M^−1cm^−1). The heteronuclear complexes were dissolved in DMSO to achieve 6 mM stock solutions, and six aliquots of 2.5 μL were added to a 50 μM solution of BSA in PBS placed in a quartz cuvette of 1 cm optical path. The final concentrations of the complexes in the cuvette were 0, 5, 10, 15, 20, 25, and 30 μM. The fluorescence spectra were recorded on a Jobin-Yvon-Horiba fluorolog FL-3-11 spectrometer. The samples were excited at 295 nm and the emission spectra were recorded in a range from 310 to 450 nm.
The samples were measured 4 min after every addition of the aliquots of the complexes. The fluorescence intensities of the PBS and the complexes were irrelevant under the described conditions. The data were analysed using the Stern–Volmer equation F0/F = 1 + KSV [gold complex] = 1 + Kqτ0[complex] to obtain the Stern–Volmer quenching constant (KSV) and the quenching rate constant (Kq). The binding constant (Kb) was quantified by using the Stern–Volmer equation: log {(F0 − F)/F} = log Kb + n log [complex].
We have carried out fluorescence and UV-Vis spectroscopic experiments to study the affinity of [Cu{Au(Spy)(PTA)}2]PF6 (1) and [Zn{Au(PTA)(Spy)}2](NO3)2 (2) for albumin. These experiments are based on the quenching of the intrinsic tryptophan fluorescence emission undergone by BSA in the presence of increasing concentrations of the trinuclear complexes, which act as quenchers. The intrinsic fluorescence of BSA is susceptible to alterations in its local environment, and the binding or simple electrostatic interaction of molecules can result in modifications to its emission spectrum. Fluorescence quenching experiments have been carried out, observing the emission of tryptophan at 341 nm upon excitation at 295 nm and increasing concentrations of compounds 2 and 3 with BSA. […] The addition of increasing amounts of the complexes to a BSA solution results in a significant reduction in fluorescence intensity without any shift in the emission maximum. The fluorescence data have been analysed using the Stern–Volmer equation so that the binding of the complexes to BSA and the consequent quenching of the emission can be quantified (Table 3). The corresponding plot F0/F versus [complex] (F and F0 are the corresponding intensities in the presence and the absence of the quencher agent) gives a linear plot in both cases (Figure 1B), characteristic of the presence of a single mechanism of quenching, either static or dynamic. […]

[3] = target: T1, bovine serum albumin (BSA); assay: BSA UV-vis absorption superposition (static vs dynamic quenching); assay type: binding; conditions: compound 24 μM, absorption spectra superposition
Protocol: Furthermore, examination of the absorption spectra of the fluorophores can be used as a means of characterising static and dynamic quenching. Given the premise that static quenching entails complex formation, alterations in the absorption spectra of BSA are to be anticipated. Conversely, since dynamic quenching only affects the excited states of BSA, its absorption spectra would remain unaltered. The absorption spectra of BSA were recorded in the absence and presence of each compound at a concentration of 24 μM, as well as the absorption spectrum of the compound at the same concentration. A mathematical superposition of the spectrum of BSA and the spectrum of the compounds was calculated.

[4] = test system: Caco-2/PD7 cells; assay: MTT cell proliferation assay, Caco-2/PD7; assay type: cell-based, human; conditions: for Cytotoxic activity compared with mononuclear precursor [Au(Spy)(PTA)] (fold): Caco-2 PD7 and TC7 clones, ratio of IC50; for IC50: MTT, 72 h, mean ± SE of at least three determinations
Protocol: (§1) Cell culture. Human colon cancer Caco-2 cells (PD7 and TC7 clones) were kindly provided by Dr. Edith Brot-Laroche (Université Pierre et Marie Curie-Paris 6, UMR S 872, Les Cordeliers, Lyon, France) and grown in Dulbecco’s Modified Eagles medium (DMEM) (Gibco Invitrogen, Paisley, UK) supplemented with 20% foetal bovine serum (FBS), 1% non-essential amino acids, 1% streptomycin (1000 μg/mL), 1% penicillin (1000 μg/mL), and 1% amphotericin (250 U/mL). Caco-2 cells were maintained at 37 °C in a humidified atmosphere at 5% CO2.
(§2) Cell proliferation assay. Cell proliferation was measured using the 3-(4,5-dimethyl-2-thiazoyl)-2,5-diphenyltetrazolium bromide (MTT) assay, as previously described. Caco-2/TC7 cells were seeded in a 96-well plate at a density of 4000 cells/well and grown for 24 h before being treated with each complex or DMSO (used as control). After 72 h of incubation with the complexes, 10 μL of MTT (5 mg/mL) were added and incubation was continued at 37 °C for 3 h. Inversion removed the medium and 100 μL of DMSO were added to each well. Absorbance at 560 nm, proportional to many living cells, was measured by spectrophotometry (SPECTROstar Nano, BMG LABTECH, Ortenberg, Germany) and converted into a percentage (%) of growth inhibition.
(§3) The antiproliferative effects of the mononuclear and heteropolinuclear complexes were tested on two different Caco-2 cancer cell lines (PD7 and […]). […] Caco-2 cells of both PD7 and TC7 clones were exposed to increasing concentrations of the assayed compounds through dose–response/cell viability analysis. The results in terms of the IC50 parameter (Table 4) were obtained by using the MTT protocol.

[5] = test system: Caco-2/TC7 cells; assay: MTT cell proliferation assay, Caco-2/TC7; assay type: cell-based, human; conditions: 72 h, mean ± SE of at least three determinations
Protocol: as §1, §2, §3

T1 sequence (P02769 25-607): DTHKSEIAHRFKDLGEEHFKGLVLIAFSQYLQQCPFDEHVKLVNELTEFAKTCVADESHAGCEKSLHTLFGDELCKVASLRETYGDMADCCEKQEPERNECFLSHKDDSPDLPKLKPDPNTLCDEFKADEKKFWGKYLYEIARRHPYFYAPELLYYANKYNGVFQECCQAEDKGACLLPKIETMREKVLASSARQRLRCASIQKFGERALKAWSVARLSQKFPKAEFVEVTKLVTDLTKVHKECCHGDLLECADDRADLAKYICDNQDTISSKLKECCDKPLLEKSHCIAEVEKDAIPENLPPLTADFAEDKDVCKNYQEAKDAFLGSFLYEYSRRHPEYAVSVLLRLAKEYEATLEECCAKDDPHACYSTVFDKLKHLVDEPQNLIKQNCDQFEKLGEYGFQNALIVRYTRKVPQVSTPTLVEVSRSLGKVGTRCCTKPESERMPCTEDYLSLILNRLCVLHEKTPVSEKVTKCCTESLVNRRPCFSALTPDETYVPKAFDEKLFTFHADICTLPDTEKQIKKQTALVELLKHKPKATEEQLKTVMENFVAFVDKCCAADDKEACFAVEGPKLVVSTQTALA

Substance	Solubility in PBS (qualitative) [1]	Stability under physiological conditions (UV-vis spectrum over time) [1]	number of binding sites n [2]	Stern-Volmer quenching constant KSV [2] [M⁻¹]	Quenching / binding mode with BSA [3]	Cytotoxic activity compared with mononuclear precursor [Au(Spy)(PTA)] (fold) [4]	IC50 [4] [µM]	IC50 [5] [µM]	Cytotoxic activity compared with mononuclear precursor [Au(Spy)(PTA)] (fold) ([4]; listed as Au2Cu compound (2))
[Zn{Au(PTA)(Spy)}2](NO3)2 [compound 2]	highly soluble	remained unaltered for a period of 24 h	0.95	1760	static binding mode may be implied	slight improvement	2.18 ± 0.24	1.94 ± 0.81	–
[Cu{Au(Spy)(PTA)}2]PF6 [compound 1]	reduced solubility in PBS	notable stability	1.11	5730	dynamic binding	–	0.16 ± 0.02	0.13 ± 0.07	15
